Test results as given in ChEMBL document CHEMBL4020788, “Synthesis, SAR and molecular docking studies of benzo[d]thiazole-hydrazones as potential antibacterial and antifungal agents” (2017).
Active and inactive are the calls of the source. No cut-off for these calls is given here.

Experiments:
Assay type in all cases: functional
[1] = test system: Staphylococcus aureus; assay: Antibacterial activity against Staphylococcus aureus at 25 ug/ml after 24 hrs by agar well diffusion method
[2] = test system: Staphylococcus aureus; assay: Antibacterial activity against Staphylococcus aureus at 50 ug/ml after 24 hrs by agar well diffusion method
[3] = test system: Staphylococcus aureus; assay: Antibacterial activity against Staphylococcus aureus at 75 ug/ml after 24 hrs by agar well diffusion method
[4] = test system: Staphylococcus aureus; assay: Antibacterial activity against Staphylococcus aureus at 100 ug/ml after 24 hrs by agar well diffusion method
[5] = test system: Bacillus subtilis; assay: Antibacterial activity against Bacillus subtilis at 25 ug/ml after 24 hrs by agar well diffusion method
[6] = test system: Bacillus subtilis; assay: Antibacterial activity against Bacillus subtilis at 50 ug/ml after 24 hrs by agar well diffusion method
[7] = test system: Bacillus subtilis; assay: Antibacterial activity against Bacillus subtilis at 75 ug/ml after 24 hrs by agar well diffusion method
[8] = test system: Bacillus subtilis; assay: Antibacterial activity against Bacillus subtilis at 100 ug/ml after 24 hrs by agar well diffusion method
[9] = test system: Escherichia coli; assay: Antibacterial activity against Escherichia coli at 25 ug/ml after 24 hrs by agar well diffusion method; conditions: read-out: DIZ
[10] = test system: Escherichia coli; assay: Antibacterial activity against Escherichia coli at 50 ug/ml after 24 hrs by agar well diffusion method; conditions: read-out: DIZ
[11] = test system: Escherichia coli; assay: Antibacterial activity against Escherichia coli at 75 ug/ml after 24 hrs by agar well diffusion method; conditions: read-out: DIZ
[12] = test system: Escherichia coli; assay: Antibacterial activity against Escherichia coli at 100 ug/ml after 24 hrs by agar well diffusion method; conditions: read-out: DIZ
[13] = test system: Klebsiella pneumoniae; assay: Antibacterial activity against Klebsiella pneumoniae at 25 ug/ml after 24 hrs by agar well diffusion method; conditions: read-out: DIZ
[14] = test system: Klebsiella pneumoniae; assay: Antibacterial activity against Klebsiella pneumoniae at 50 ug/ml after 24 hrs by agar well diffusion method; conditions: read-out: DIZ
[15] = test system: Klebsiella pneumoniae; assay: Antibacterial activity against Klebsiella pneumoniae at 75 ug/ml after 24 hrs by agar well diffusion method; conditions: read-out: DIZ
[16] = test system: Klebsiella pneumoniae; assay: Antibacterial activity against Klebsiella pneumoniae at 100 ug/ml after 24 hrs by agar well diffusion method; conditions: read-out: DIZ
[17] = test system: Staphylococcus aureus; assay: Antibacterial activity against methicillin resistant Staphylococcus aureus MRSA090 at 25 ug/ml after 24 hrs by agar well diffusion method; conditions: MRSA090, 24 h, read-out: DIZ
[18] = test system: Staphylococcus aureus; assay: Antibacterial activity against methicillin resistant Staphylococcus aureus MRSA090 at 50 ug/ml after 24 hrs by agar well diffusion method; conditions: MRSA090, 24 h, read-out: DIZ
[19] = test system: Staphylococcus aureus; assay: Antibacterial activity against methicillin resistant Staphylococcus aureus MRSA090 at 75 ug/ml after 24 hrs by agar well diffusion method; conditions: MRSA090, 24 h, read-out: DIZ
[20] = test system: Staphylococcus aureus; assay: Antibacterial activity against methicillin resistant Staphylococcus aureus MRSA090 at 100 ug/ml after 24 hrs by agar well diffusion method; conditions: MRSA090, 24 h, read-out: DIZ
[21] = test system: Aspergillus niger; assay: Antifungal activity against Aspergillus niger at 25 ug/ml after 48 hrs by agar well diffusion method; conditions: read-out: DIZ
[22] = test system: Aspergillus niger; assay: Antifungal activity against Aspergillus niger at 50 ug/ml after 48 hrs by agar well diffusion method; conditions: read-out: DIZ
[23] = test system: Aspergillus niger; assay: Antifungal activity against Aspergillus niger at 75 ug/ml after 48 hrs by agar well diffusion method; conditions: read-out: DIZ
[24] = test system: Aspergillus niger; assay: Antifungal activity against Aspergillus niger at 100 ug/ml after 48 hrs by agar well diffusion method; conditions: read-out: DIZ
[25] = test system: Fusarium verticillioides; assay: Antifungal activity against Fusarium moniliforme at 25 ug/ml after 48 hrs by agar well diffusion method
[26] = test system: Fusarium verticillioides; assay: Antifungal activity against Fusarium moniliforme at 50 ug/ml after 48 hrs by agar well diffusion method
[27] = test system: Fusarium verticillioides; assay: Antifungal activity against Fusarium moniliforme at 75 ug/ml after 48 hrs by agar well diffusion method
[28] = test system: Fusarium verticillioides; assay: Antifungal activity against Fusarium moniliforme at 100 ug/ml after 48 hrs by agar well diffusion method
[29] = test system: Fusarium oxysporum; assay: Antifungal activity against Fusarium oxysporum at 25 ug/ml after 48 hrs by agar well diffusion method
[30] = test system: Fusarium oxysporum; assay: Antifungal activity against Fusarium oxysporum at 50 ug/ml after 48 hrs by agar well diffusion method
[31] = test system: Fusarium oxysporum; assay: Antifungal activity against Fusarium oxysporum at 75 ug/ml after 48 hrs by agar well diffusion method
[32] = test system: Fusarium oxysporum; assay: Antifungal activity against Fusarium oxysporum at 100 ug/ml after 48 hrs by agar well diffusion method

Structure (SMILES)	diameter of the inhibition zone (DIZ) [1]	diameter of the inhibition zone (DIZ) [2]	diameter of the inhibition zone (DIZ) [3]	diameter of the inhibition zone (DIZ) [4]	diameter of the inhibition zone (DIZ) [5]	diameter of the inhibition zone (DIZ) [6]	diameter of the inhibition zone (DIZ) [7]	diameter of the inhibition zone (DIZ) [8]	zone of inhibition at 25 µg/mL [9] [mm]	zone of inhibition at 50 µg/mL [10] [mm]	zone of inhibition at 75 µg/mL [11] [mm]	zone of inhibition at 100 µg/mL [12] [mm]	zone of inhibition at 25 µg/mL [13] [mm]	zone of inhibition at 50 µg/mL [14] [mm]	zone of inhibition at 75 µg/mL [15] [mm]	zone of inhibition at 100 µg/mL [16] [mm]	zone of inhibition at 25 µg/mL [17] [mm]	zone of inhibition at 50 µg/mL [18] [mm]	zone of inhibition at 75 µg/mL [19] [mm]	zone of inhibition at 100 µg/mL [20] [mm]	also measured
Cc1cccc2nc(N/N=C/c3ccncc3)sc12	inactive	inactive	inactive	inactive	inactive	inactive	inactive	inactive	7	14	16	19	5	9	14	18	7	10	14	17	zone of inhibition at 25 µg/mL [21]: 6 mm; zone of inhibition at 50 µg/mL [22]: 11 mm; zone of inhibition at 75 µg/mL [23]: 13 mm; zone of inhibition at 100 µg/mL [24]: 16 mm; diameter of the inhibition zone (DIZ) [25]: inactive; diameter of the inhibition zone (DIZ) [26]: inactive; diameter of the inhibition zone (DIZ) [27]: inactive; diameter of the inhibition zone (DIZ) [28]: inactive; diameter of the inhibition zone (DIZ) [29]: inactive; diameter of the inhibition zone (DIZ) [30]: inactive; diameter of the inhibition zone (DIZ) [31]: inactive; diameter of the inhibition zone (DIZ) [32]: inactive
Cc1cccc2nc(N/N=C/c3ccco3)sc12	inactive	inactive	inactive	inactive	inactive	inactive	inactive	inactive	4	9	13	17	11	16	21	24	5	9	13	16	zone of inhibition at 25 µg/mL [21]: 10 mm; zone of inhibition at 50 µg/mL [22]: 13 mm; zone of inhibition at 75 µg/mL [23]: 17 mm; zone of inhibition at 100 µg/mL [24]: 22 mm; zone of inhibition at 25 µg/mL ([25]; read-out: DIZ): 10 mm; zone of inhibition at 50 µg/mL ([26]; read-out: DIZ): 13 mm; zone of inhibition at 75 µg/mL ([27]; read-out: DIZ): 18 mm; zone of inhibition at 100 µg/mL ([28]; read-out: DIZ): 21 mm; zone of inhibition at 25 µg/mL ([29]; read-out: DIZ): 4 mm; zone of inhibition at 50 µg/mL ([30]; read-out: DIZ): 10 mm; zone of inhibition at 75 µg/mL ([31]; read-out: DIZ): 14 mm; zone of inhibition at 100 µg/mL ([32]; read-out: DIZ): 18 mm
